# Reference: patent US20250019350A1, “SYNTHESIS OF THE PROSTATE SPECIFIC MEMBRANE ANTIGEN (PSMA) RADIOLABELED INHIBITOR [18F]DCFPYL” (Progenics Pharmaceuticals, Inc, priority 2023, published 2025)
# “And” between values parts separate entries of the source, which are not always exact repeats. Equal entries are not always repeated.
# Assay: Radiolysis / stability of [18F]DCFPyL over time by HPLC with radiodetection (RCP, free 18F, radioactive impurities)
# Format: physicochemical
# Method: Those of ordinary skill in the art will be aware of techniques and systems for determining the radiochemical purity of a composition. In some cases, the radiochemical purity is determined using an HPLC associated with a radio-detector. Generally, the radiochemical purity is determined under ambient conditions (e.g., ambient temperature, ambient humidity, ambient light, etc.), such as in samples stored under such conditions.
# Stability was assessed using reverse phase HPLC on a C18 column with a phosphate buffer/acetonitrile gradient mobile phase, and the elution profile was monitored using both UV and radiochemical detectors. Samples were analyzed either by direct injection onto the HPLC, dilution and injection or including the addition of tetraethylammonium fluoride (TEAF) into the sample before injection.
# Known amounts of free ^18F either alone or spiked with TEAF were injected onto the analytic column and the eluent from the column collected over the course of a chromatogram and assaying the radioactivity using a Capintec. […] Adding TEAF into the analytic samples was incorporated into subsequent studies examining potential radiolysis of [^18F]DCFPyL to overcome some of the limitations of free ^18F quantification.
# Analytical HPLC method was used. The method employs UV detection at 264 nm for chemical impurities, and an Eckert & Ziegler model B-FC-1000 gamma detector for radiochemical assays.
# [1] = T = 2.5 hr, 100 mg/mL ascorbic acid pH 2.0, 256 mCi/mL at EOS
# [2] = T = 2.5 hr, 20% ethanol in saline, 52 mCi/mL at EOS
# [3] = T = 2.5 hr, 20% ethanol in saline, 65 mCi/mL at EOS
# [4] = T = 2.5 hr, 20% ethanol in saline, 85 mCi/mL at EOS
# [5] = T = 2.5 hr, control without ascorbic acid, 36% ethanol in saline, 147 mCi/mL at EOS
# [6] = T = 3.0 hr, 50 mg/mL ascorbic acid pH 5.8 in final product vial, 20% ethanol, 110 mCi/mL at EOS
# [7] = T = 3.0 hr, 100 mg/mL ascorbic acid pH 2.0, 256 mCi/mL at EOS
# [8] = T = 3 hr, 20% ethanol in saline, 52 mCi/mL at EOS
# [9] = T = 3 hr, 20% ethanol in saline, 65 mCi/mL at EOS
# [10] = T = 3 hr, 20% ethanol in saline, 85 mCi/mL at EOS
# [11] = T = 3 hr, 100% ethanol, 325 mCi/mL at EOS
# [12] = T = 3 hr, control without ascorbic acid, 36% ethanol in saline, 147 mCi/mL at EOS
# [13] = T = 3.5 hr, 50 mg/mL ascorbic acid pH 5.8 in final product vial, 20% ethanol, 110 mCi/mL at EOS
# [14] = T = 3.5 hr, 100 mg/mL ascorbic acid pH 2.0, 256 mCi/mL at EOS
# [15] = T = 3.5 hr, 20% ethanol in saline, 52 mCi/mL at EOS
# [16] = T = 3.5 hr, 20% ethanol in saline, 65 mCi/mL at EOS
# [17] = T = 3.5 hr, 20% ethanol in saline, 85 mCi/mL at EOS
# [18] = T = 3.5 hr, control without ascorbic acid, 36% ethanol in saline, 147 mCi/mL at EOS
# [19] = T = 4 hr, 0.5 mg/mL ascorbic acid pH 5.8, 20% ethanol, 105.8 mCi/mL at EOS
# [20] = T = 4 hr, 1 mg/mL ascorbic acid pH 5.8, 20% ethanol, 107.0 mCi/mL at EOS
# [21] = T = 4 hr, 5 mg/mL ascorbic acid pH 5.8, 20% ethanol, 99.0 mCi/mL at EOS
# [22] = T = 4 hr, 20 mg/mL sodium citrate, 20% ethanol, 104.8 mCi/mL at EOS
# [23] = T = 4 hr, 50 mg/mL ascorbic acid pH 5.8, 20% ethanol, 139.7 mCi/mL at EOS
# [24] = T = 4.0 hr, 50 mg/mL ascorbic acid pH 5.8 in final product vial, 20% ethanol, 110 mCi/mL at EOS
# [25] = T = 4.0 hr, 100 mg/mL ascorbic acid pH 2.0, 256 mCi/mL at EOS
# [26] = T = 4 hr, 20% ethanol in saline, 52 mCi/mL at EOS
# [27] = T = 4 hr, 20% ethanol in saline, 65 mCi/mL at EOS
# [28] = T = 4 hr, 20% ethanol in saline, 85 mCi/mL at EOS
# [29] = T = 4 hr, 100% ethanol, 325 mCi/mL at EOS
# [30] = T = 4 hr, control without ascorbic acid, 36% ethanol in saline, 147 mCi/mL at EOS
# [31] = T = 5 hr, 100% ethanol, 325 mCi/mL at EOS
smiles,measurement,setting,value
"O=C(O)CC[C@H](NC(=O)N[C@@H](CCCCNC(=O)c1ccc([18F])nc1)C(=O)O)C(=O)O [Lot 18F-DCFPyL, 2-(3-{1-carboxy-5-[(6-[18F]fluoro-pyridine-3-carbonyl)-amino]-pentyl}ureido)-pentanedioic acid]",18F-DCFPyL (RCP),[1],98.71%
same,Free 18F,[1],0.31%
same,RT 12.0 radioactive impurity,[1],0.52%
same,RT 12.2 radioactive impurity,[1],0.46%
same,18F-DCFPyL (RCP),[2],98.61%
same,Free F-18,[2],0.86%
same,RT 5.0 radioactive impurity,[2],0.53%
same,18F-DCFPyL (RCP),[3],95.36%
same,Free F-18,[3],3.97%
same,RT 5.0 radioactive impurity,[3],0.41%
same,RT 5.9 radioactive impurity,[3],0.26%
same,18F-DCFPyL (RCP),[4],95.06%
same,Free F-18,[4],4.29%
same,RT 5.0 radioactive impurity,[4],0.31%
same,RT 5.9 radioactive impurity,[4],0.35%
same,18F-DCFPyL (RCP),[5],88.79%
same,Free F-18,[5],9.66%
same,RT 5.0 radioactive impurity,[5],0.62%
same,RT 5.9 radioactive impurity,[5],0.93%
same,18F-DCFPyL (RCP),[6],99.25%
same,Free 18F,[6],0.35%
same,RT 5.0 radioactive impurity,[6],0.39%
same,RT 5.9 radioactive impurity,[6],0.27%
same,18F-DCFPyL (RCP),[7],98.46%
same,Free 18F,[7],0.29%
same,RT 12.0 radioactive impurity,[7],0.69%
same,RT 12.2 radioactive impurity,[7],0.57%
same,18F-DCFPyL (RCP),[8],98.53%
same,Free F-18,[8],0.99%
same,RT 5.0 radioactive impurity,[8],0.48%
same,18F-DCFPyL (RCP),[9],95.64%
same,Free F-18,[9],4.03%
same,RT 5.0 radioactive impurity,[9],0.34%
same,18F-DCFPyL (RCP),[10],95.10%
same,Free F-18,[10],4.26%
same,RT 5.0 radioactive impurity,[10],0.37%
same,RT 5.9 radioactive impurity,[10],0.27%
same,18F-DCFPyL (RCP),[11],95.71%
same,Free F-18,[11],4.29%
same,18F-DCFPyL (RCP),[12],88.94%
same,Free F-18,[12],9.49%
same,RT 5.0 radioactive impurity,[12],0.70%
same,RT 5.9 radioactive impurity,[12],0.87%
same,18F-DCFPyL (RCP),[13],99.46%
same,Free 18F,[13],0.24%
same,RT 5.0 radioactive impurity,[13],0.31%
same,18F-DCFPyL (RCP),[14],98.03%
same,Free 18F,[14],0.35%
same,RT 12.0 radioactive impurity,[14],0.88%
same,RT 12.2 radioactive impurity,[14],0.75%
same,18F-DCFPyL (RCP),[15],98.55%
same,Free F-18,[15],0.94%
same,RT 5.0 radioactive impurity,[15],0.52%
same,18F-DCFPyL (RCP),[16],95.44%
same,Free F-18,[16],4.17%
same,RT 5.0 radioactive impurity,[16],0.39%
same,18F-DCFPyL (RCP),[17],95.14%
same,Free F-18,[17],4.51%
same,RT 5.0 radioactive impurity,[17],0.35%
same,18F-DCFPyL (RCP),[18],88.90%
same,Free F-18,[18],9.56%
same,RT 5.0 radioactive impurity,[18],0.59%
same,RT 5.9 radioactive impurity,[18],0.95%
same,18F-DCFPyL (% RCP),[19],98.64%
same,Free F-18,[19],1.36%
same,18F-DCFPyL (% RCP),[20],98.56%
same,Free F-18,[20],1.44%
same,Free F-18,"T = 4 hr, 1 mg/mL sodium ascorbate, 20% ethanol, 111.5 mCi/mL at EOS",2.61%
same,18F-DCFPyL (% RCP),[21],99.23%
same,Free F-18,[21],0.77%
same,Free F-18,"T = 4 hr, 5 mg/mL sodium ascorbate, 20% ethanol, 114.6 mCi/mL at EOS",1.23%
same,Free F-18,[22],20.65%
same,RT 3.4 radioactive impurity,[22],0.32%
same,RT 3.7 radioactive impurity,[22],0.35%
same,18F-DCFPyL (% RCP),[23],99.69%
same,Free F-18,[23],0.31%
same,RT 4.8 radioactive impurity,"T = 4 hr, 50 mg/mL ascorbic acid pH 5.8, 20% ethanol, 139.7 mCi/mL at EOS, MPA = 0.25% of main peak",<MPA
same,18F-DCFPyL (RCP),[24],above 99%
same,Free 18F,[24],0.26%
same,RT 5.0 radioactive impurity,[24],0.37%
same,18F-DCFPyL (RCP),[25],98.0% and 97.98%
same,Free 18F,[25],0.37%
same,RT 12.0 radioactive impurity,[25],0.96%
same,RT 12.2 radioactive impurity,[25],0.69%
same,18F-DCFPyL (RCP),"T = 4.0 hr, 100 mg/mL ascorbic acid pH 2.0, 256 mCi/mL at EOS, listed as [^18F]DCFPYL",98.0%
same,18F-DCFPyL (RCP),[26],98.53%
same,Free F-18,[26],0.98%
same,RT 5.0 radioactive impurity,[26],0.49%
same,18F-DCFPyL (RCP),[27],95.50%
same,Free F-18,[27],4.23%
same,RT 5.0 radioactive impurity,[27],0.27%
same,18F-DCFPyL (RCP),[28],94.93%
same,Free F-18,[28],4.73%
same,RT 5.0 radioactive impurity,[28],0.34%
same,18F-DCFPyL (RCP),[29],95.60%
same,Free F-18,[29],4.40%
same,18F-DCFPyL (RCP),[30],89% and 89.06%
same,Free F-18,[30],9.27%
same,RT 5.0 radioactive impurity,[30],0.71%
same,RT 5.9 radioactive impurity,[30],0.96%
same,18F-DCFPyL (RCP),"T = 4 hr, control without ascorbic acid, 36% ethanol in saline, 147 mCi/mL at EOS, listed as [^18F]DCFPYL",89%
same,18F-DCFPyL (RCP),[31],95.58%
same,Free F-18,[31],4.42%
same,Free F-18,"T = 6 hr, 0.5 mg/mL ascorbic acid pH 5.8, 20% ethanol, 105.8 mCi/mL at EOS",1.44%
same,18F-DCFPyL (% RCP),"T = 6 hr, 1 mg/mL ascorbic acid pH 5.8, 20% ethanol, 107.0 mCi/mL at EOS",98.43%
